Read-outs that look alike come from different tables or passages of the source.
Columns and labels:
[1] = test system: NAADP-evoked Ca2+ release (TPC activity); format: biochemical, sea urchin
[2] = test system: MERS-pseudovirus; format: cell-based, MERS-COV; Huh7 cells
[3] = test system: SARS-CoV-2 pseudovirus; format: cell-based, SARS-CoV-2; HEK293 cells expressing ACE2
[4] = test system: ciliary beat frequency; conditions: cited from earlier work
[5] = test system: mast cell degranulation; conditions: human lung; cited from earlier work

OCc1cc(C(O)CNCCCCCCOCCCCc2ccccc2)ccc1O (racemic) [salmeterol, (RS)-2-(hydroxymethyl)-4-{1-hydroxy-2-[6-(4-phenylbutoxy)hexylamino]ethyl}phenol]
inhibition of TPC activity [1]: able to inhibit | rank for TPC inhibition (amplitude of NAADP-evoked Ca2+ release, rank #1 = greatest inhibition) [1]: 16/1534 | inhibition of MERS-COV infectivity in a pseudovirus translocation assay [2]: potent and penetrant | inhibition of SARS-CoV-2 pseudovirus infectivity ([3]; 10 μM): pronounced inhibition | ciliary beat frequency [4]: rapid and prolonged increase | mast cell degranulation [5]: potent and long-lasting inhibition

NCCOB(c1ccccc1)c1ccccc1 [2-APB]
inhibition of SARS-CoV-2 pseudovirus infectivity ([3]; 10 μM): no effect

CC(=O)OCOC(=O)CN(CC(=O)OCOC(C)=O)c1ccccc1OCCOc1ccccc1N(CC(=O)OCOC(C)=O)CC(=O)OCOC(C)=O [BAPTA-AM]
inhibition of SARS-CoV-2 pseudovirus infectivity [3]: nearly complete inhibition

xestospongin
inhibition of SARS-CoV-2 pseudovirus infectivity ([3]; 10 μM): no effect

ryanodine
inhibition of SARS-CoV-2 pseudovirus infectivity ([3]; 10 μM): no effect
